The numbers were not newly measured in US20170274026A1, “METHOD OF MAKING TRITERPENOIDS FROM PETRI DISH CULTUREDANTRODIA CINNAMOMEA” (Ultra-Microrigin Biomedical Technology Co., Ltd., priority 2016, published 2017), which cites them from elsewhere.

In the data set the test system is cancer cells. Conditions: Toxicology in Vitro and International Journal of Gerontology.

Consider `C=C(CC[C@@H](C(=O)O)[C@H]1C[C@H](O)[C@@]2(C)C3=CC[C@H]4C(C)(C)[C@@H](O)CC[C@]4(C)C3=CC[C@]12C)C(C)C` [MMH01, dehydrosulphurenic acid], for which the “anti-tumor effect and repressing the growth of cancer cells” value is “effective in anti-tumor and repressing the growth of cancer cells”.
